Target: T1, human mAChR M4 (Homo sapiens, UniProt P08173)
T1 construct: expressed in transfected cells; host or cells: CHO-K1 (ATCC), co-transfected with chimeric G protein Gqi5
T1 sequence (P08173 1-479): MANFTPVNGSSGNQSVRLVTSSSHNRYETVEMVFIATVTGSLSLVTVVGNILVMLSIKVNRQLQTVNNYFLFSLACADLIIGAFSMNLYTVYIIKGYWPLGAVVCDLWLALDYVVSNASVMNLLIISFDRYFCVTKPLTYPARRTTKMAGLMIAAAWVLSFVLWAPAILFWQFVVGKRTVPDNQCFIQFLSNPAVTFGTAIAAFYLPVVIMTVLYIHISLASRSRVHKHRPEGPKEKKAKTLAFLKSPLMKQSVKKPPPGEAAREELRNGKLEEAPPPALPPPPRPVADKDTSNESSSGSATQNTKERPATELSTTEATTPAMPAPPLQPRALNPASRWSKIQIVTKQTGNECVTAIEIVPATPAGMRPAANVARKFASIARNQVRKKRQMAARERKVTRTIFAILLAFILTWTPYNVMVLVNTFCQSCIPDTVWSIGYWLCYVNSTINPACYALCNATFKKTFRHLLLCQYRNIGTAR
Test: mAChR M4 cell-based functional assay (calcium flux, antagonism of EC80 acetylcholine response, M4/Gqi5/CHO-K1 cells)
Conditions: for remaining activity at 30 µM: CHO-K1, % ACh maximum at 30 μM, read-out: Human M4 Emin; for IC50: decrease of the response elicited by an EC80 concentration of acetylcholine, CHO-K1 cells, Gqi5
Experimental: Human or rat M4 cDNA, along with the chimeric G protein Gqi5, were transfected into Chinese hamster ovary (CHO-K1) cells purchased from the American Type Culture Collection using Lipofectamine2000. M4/Gqi5/CHO cells were grown in Ham's F-12 medium containing 10% heat-inactivated fetal bovine serum (FBS), 20 mM HEPES, 500 μg/mL G418 sulfate, and 200 μg/mL Hygromycin B.
For high throughput measurement of agonist-evoked increases in intracellular calcium, CHO-K1 cells stably expressing muscarinic receptors were plated in growth medium lacking G418 and hygromycin at 15,000 cells/20 μL/well in Greiner 384-well black-walled, tissue culture (TC)-treated, clear-bottom plates (VWR). Cells were incubated overnight at 37° C. and 5% CO2. The next day, cells were washed using an ELX 405 (BioTek) with assay buffer; the final volume was then aspirated to 20 μL. Next, 20 μL of a 2.3 μM stock of Fluo-4/acetoxymethyl ester (Invitrogen, Carlsbad, CA), prepared as a 2.3 mM stock in DMSO and mixed in a 1:1 ratio with 10% (w/v) Pluronic F-127 and diluted in assay buffer, was added to the wells and the cell plates were incubated for 50 min at 37° C. and 5% CO2. Dye was removed by washing with the ELX 405 and the final volume was aspirated to 20 μL. Compound master plates were formatted in a 10-point concentration-response curve (CRC) format (1:3 dilutions) in 100% DMSO with a starting concentration of 10 or 1 mM using a BRAVO liquid handler (Agilent). Test compound CRCs were then transferred to daughter plates (240 nL) using the Echo acoustic plate reformatter (Labcyte, Sunnyvale, CA) and then diluted into assay buffer (40 μL) to a 2× stock using a Thermo Fisher Combi (Thermo Fisher Scientific, Waltham, MA).
Calcium flux was measured using the Functional Drug Screening System (FDSS) 6000 or 7000 (Hamamatsu Corporation, Tokyo, Japan) as an increase in the fluorescent static ratio. Compounds were applied to cells (20 μL, 2×) using the automated system of the FDSS at 2 seconds into the protocol and the data were collected at 1 Hz. At 143 s, 10 μL of an EC20 concentration of the muscarinic receptor agonist acetylcholine was added (5×), followed by the addition of 12 μL of an EC80 concentration of acetylcholine at the 268 s time point (5×). Agonist activity was analyzed as a concentration-dependent increase in calcium mobilization upon compound addition. Positive allosteric modulator activity was analyzed as a concentration-dependent increase in the EC20 acetylcholine response. Antagonist activity was analyzed as a concentration-dependent decrease in the EC80 acetylcholine response; for the purposes of the tables herein, an IC50 (inhibitory concentration 50) was calculated as a concentration-dependent decrease of the response elicited by an EC80 concentration of acetylcholine. Concentration-response curves were generated using a four-parameter logistical equation in XLFit curve fitting software (IDBS, Bridgewater, NJ) for Excel (Microsoft, Redmond, WA) or Prism (GraphPad Software, Inc., San Diego, CA) or the Dotmatics software platform (Dotmatics, Bishop's Stortford, UK). […]
Compounds were synthesized as described above. Activity (IC50 and Emin) was determined in the mAChR M4 cell-based functional assay as described above and the data are shown in Table 2.

SMILES | remaining activity at 30 µM [%] | IC50 [nM] | Human M4 Emin (% ACh maximum at 30 μM) [%]
[2H]C1([2H])CC(C([2H])([2H])N2C[C@H]3C[C@H](Nc4nnc(-c5cnccc5C(F)(F)F)cc4OC)C[C@H]3C2)CC([2H])([2H])O1 [Compound 22, (3aR,5s,6aS)-N-(4-methoxy-6-(4-(trifluoromethyl)pyridin-3-yl)pyridazin-3-yl)-2-((tetrahydro-2H-pyran-4-yl-2,2,6,6-d4)methyl-d2)octahydrocyclopenta[c]pyrrol-5-amine] | 2 | 4.5 | 
[2H]C1([2H])CC(CN2C[C@H]3C[C@H](Nc4nnc(-c5cnccc5C(F)(F)F)cc4OC)C[C@H]3C2)CC([2H])([2H])O1 [Compound 23, (3aR,5s,6aS)-N-(4-methoxy-6-(4-(trifluoromethyl)pyridin-3-yl)pyridazin-3-yl)-2-((tetrahydro-2H-pyran-4-yl-2,2,6,6-d4)methyl)octahydrocyclopenta[c]pyrrol-5-amine] | 2 | 3.9 | 
[2H]C([2H])([C@@H]1CCCOC1)N1C[C@H]2C[C@H](Nc3ccc(-c4cnccc4C(F)(F)F)nn3)C[C@H]2C1 [Compound 24, (3aR,5s,6aS)-2-(((S)-tetrahydro-2H-pyran-3-yl)methyl-d2)-N-(6-(4-(trifluoromethyl)pyridin-3-yl)pyridazin-3-yl)octahydrocyclopenta[c]pyrrol-5-amine] | 3 | 5.5 | 
[2H]C([2H])([C@H]1CCCOC1)N1C[C@H]2C[C@H](Nc3ccc(-c4cnccc4C(F)(F)F)nn3)C[C@H]2C1 [Compound 25, (3aR,5s,6aS)-2-(((R)-tetrahydro-2H-pyran-3-yl)methyl-d2)-N-(6-(4-(trifluoromethyl)pyridin-3-yl)pyridazin-3-yl)octahydrocyclopenta[c]pyrrol-5-amine] | 6 | 35 | 
[2H]C([2H])(C1CCOCC1)N1C[C@H]2C[C@H](Nc3nnc(-c4cnccc4C(F)(F)F)cc3C(F)F)C[C@H]2C1 [Compound 26, (3aR,5s,6aS)-N-(4-(difluoromethyl)-6-(4-(trifluoromethyl)pyridin-3-yl)pyridazin-3-yl)-2-((tetrahydro-2H-pyran-4-yl)methyl-d2)octahydrocyclopenta[c]pyrrol-5-amine] | 6 | 1.3 | 
[2H]C([2H])(C1CCCOCC1)N1C[C@H]2C[C@H](Nc3ccc(-c4cnccc4C(F)(F)F)nn3)C[C@H]2C1 (stereo partly drawn) [Compound 28, (3aR,5s,6aS)-2-(oxepan-4-ylmethyl-d2)-N-(6-(4-(trifluoromethyl)pyridin-3-yl)pyridazin-3-yl)octahydrocyclopenta[c]pyrrol-5-amine] | 4 | 2.7 | 
[2H]C([2H])(CC1CCOCC1)N1C[C@H]2C[C@H](Nc3ccc(-c4cnccc4C(F)(F)F)nn3)C[C@H]2C1 [Compound 31, (3aR,5s,6aS)-2-(2-(tetrahydro-2H-pyran-4-yl)ethyl-1,1-d2)-N-(6-(4-(trifluoromethyl)pyridin-3-yl)pyridazin-3-yl)octahydrocyclopenta[c]pyrrol-5-amine] | 5 | 0.8 | 
[2H]C([2H])(C1CC(C)(C)OC(C)(C)C1)N1C[C@H]2C[C@H](Nc3ccc(-c4cnccc4C(F)(F)F)nn3)C[C@H]2C1 [Compound 32, (3aR,5s,6aS)-2-((2,2,6,6-tetramethyltetrahydro-2H-pyran-4-yl)methyl-d2)-N-(6-(4-(trifluoromethyl)pyridin-3-yl)pyridazin-3-yl)octahydrocyclopenta[c]pyrrol-5-amine] | 14 | 24 | 
[2H]C([2H])(C1CCOC(C)(C)C1)N1C[C@H]2C[C@H](Nc3ccc(-c4cnccc4C(F)(F)F)nn3)C[C@H]2C1 (stereo partly drawn) [Compound 33, (3aR,5s,6aS)-2-((2,2-dimethyltetrahydro-2H-pyran-4-yl)methyl-d2)-N-(6-(4-(trifluoromethyl)pyridin-3-yl)pyridazin-3-yl)octahydrocyclopenta[c]pyrrol-5-amine] |  | 4.2 | 7
[2H]C([2H])(C1CCOCC1)N1C[C@H]2C[C@H](Nc3nnc(-c4cnccc4C(F)(F)F)c4sccc34)C[C@H]2C1 [Compound 34, N-((3aR,5s,6aS)-2-((tetrahydro-2H-pyran-4-yl)methyl-d2)octahydrocyclopenta[c]pyrrol-5-yl)-7-(4-(trifluoromethyl)pyridin-3-yl)thieno[2,3-d]pyridazin-4-amine] | 3 | 0.7 | 
[2H]C([2H])(C1CCOCC1)N1C[C@H]2C[C@H](Nc3nnc(-c4cnccc4C(F)(F)F)c4ccsc34)C[C@H]2C1 [Compound 35, N-((3aR,5s,6aS)-2-((tetrahydro-2H-pyran-4-yl)methyl-d2)octahydrocyclopenta[c]pyrrol-5-yl)-4-(4-(trifluoromethyl)pyridin-3-yl)thieno[2,3-d]pyridazin-7-amine] | 4 | 0.52 | 
[2H]C([2H])(N1C[C@H]2C[C@H](Nc3ccc(-c4cnccc4C(F)(F)F)nn3)C[C@H]2C1)C(F)(F)C1CCOCC1 [Compound 36, (3aR,5s,6aS)-2-(2,2-difluoro-2-(tetrahydro-2H-pyran-4-yl)ethyl-1,1-d2)-N-(6-(4-(trifluoromethyl)pyridin-3-yl)pyridazin-3-yl)octahydrocyclopenta[c]pyrrol-5-amine] | 6 | 39 | 
[2H]C([2H])(N1C[C@H]2C[C@H](Nc3nnc(-c4cnccc4C(F)(F)F)cc3C)C[C@H]2C1)C(F)(F)C1CCOCC1 [Compound 37, (3aR,5s,6aS)-2-(2,2-difluoro-2-(tetrahydro-2H-pyran-4-yl)ethyl-1,1-d2)-N-(4-methyl-6-(4-(trifluoromethyl)pyridin-3-yl)pyridazin-3-yl)octahydrocyclopenta[c]pyrrol-5-amine] | 4 | 21 | 
[2H]C([2H])(C1CCOCC1)N1C[C@H]2C[C@H](Nc3ccc(-c4cccnc4C(F)F)nn3)C[C@H]2C1 [Compound 38, (3aR,5s,6aS)-N-(6-(2-(difluoromethyl)pyridin-3-yl)pyridazin-3-yl)-2-((tetrahydro-2H-pyran-4-yl)methyl-d2)octahydrocyclopenta[c]pyrrol-5-amine] | 5 | 0.48 | 
[2H]C([2H])(C1CCOCC1)N1C[C@H]2C[C@H](Nc3ccc(-c4cccnc4C(F)(F)F)nn3)C[C@H]2C1 [Compound 39, (3aR,5s,6aS)-2-((tetrahydro-2H-pyran-4-yl)methyl-d2)-N-(6-(2-(trifluoromethyl)pyridin-3-yl)pyridazin-3-yl)octahydrocyclopenta[c]pyrrol-5-amine] | 23 | 0.8 | 
FC(F)(F)c1ncccc1-c1ccc(N[C@H]2C[C@@H]3CN(CC4CCOCC4)C[C@@H]3C2)nn1 [Compound 40, (3aR,5s,6aS)-2-((tetrahydro-2H-pyran-4-yl)methyl)-N-(6-(2-(trifluoromethyl)pyridin-3-yl)pyridazin-3-yl)octahydrocyclopenta[c]pyrrol-5-amine] | 3 | 0.74 | 
